US8273718B2, “Composition for prevention or treatment of bone metabolism disorder comprising D-pinitol as an active ingredient” (Solgent Co., priority 2007, dated 2012)

Experiments:
[1] = test system: bone marrow-derived hematopoietic stem cells; assay: Cytotoxicity of D-pinitol on bone marrow hematopoietic stem cells (CCK8); type: cell-based, mouse
Procedure: To investigate the cytotoxicity of D-pinitol to a bone marrow cell, bone marrow cells were adjusted to 1.0×10^5 cells/200 μl on 96-well plate and co-cultured with 50 ng/ml of M-CSF. Then, cultured cells were grown for 4 days while treating with D-pinitol at concentrations of 1, 3.5, 7, 12.5, 25 and 50 mM respectively. Cytotoxicity was measured using CCK8 kit (Cell Counting Kit-8, Dojindo, Japan). 10% CCK8 solution was added to culture solutions according to each culture time and incubated for 2 hrs at 37° C. After culturing, an absorbance was measured at 450 nm using Microplate reader (Bio-Rad).
To extract mouse bone marrow cells, thighbone and shinbone of male C57BL/6 mouse at 3-4 weeks of age were aseptically enucleated and their soft tissues were eliminated. Both end of long bone was cut in extracted bone tissues and then bone marrow cells were collected by injecting α-MEM/10% FBS into bone marrow cavity at one end using a 26G injection syringe. Collected bone marrow cells were subjected to 5 ng/ml of M-CSF and incubated for 16 hrs. Unattached cells on plate bottom were harvested.
The instant inventors examined the cytotoxicity of D-pinitol on hematopoietic stem cells. […] After that, the proliferation-induced cells were treated with D-pinitol at a range of 0-50 mM and the effect of D-pinitol on cell proliferation was determined by measuring CCK8 enzyme activity. […]

[2] = test system: bone marrow-derived osteoclast; assay: Differentiation of bone marrow-derived osteoclast, TRAP solution assay; type: cell-based, mouse
Procedure: TRAP solution assay of TRAP positive cells were carried out according to the following method. Medium was removed, 100 μl of 10% formalin was added and incubated for 10 min at room temperature. After 100 μl of methanol/acetone was added, incubated for 1 min at room temperature, and then dried. TRAP substrate solution comprising a tablet of pNPP (p-nitrophenylphosphate) dissolved in 20 ml of TRAP buffer (pH 5.2) was added into and incubated for 20-30 min at 37° C. 100 μl of TRAP substrate solution was transferred to a new 96-well plate in which 50 μl of 1N NaOH was contained. Finally, OD (optical density) value was measured at 405 nm. To extract mouse bone marrow cells, thighbone and shinbone of male C57BL/6 mouse at 3-4 weeks of age were aseptically enucleated and their soft tissues were eliminated. Both end of long bone was cut in extracted bone tissues and then bone marrow cells were collected by injecting α-MEM/10% FBS into bone marrow cavity at one end using a 26G injection syringe. Collected bone marrow cells were subjected to 5 ng/ml of M-CSF and incubated for 16 hrs. Unattached cells on plate bottom were harvested. […] To determine inhibitory effect of D-pinitol on osteoclastogenesis, osteoclast derived from bone marrow primary cells was analyzed using TRAP solution assay.

Raw264.7 cells [3] = assay: Cytotoxicity of D-pinitol on Raw264.7 cells (cell number count); type: cell-based; settings: 0-50 mM, cell number counted for 3 days at 24 hrs intervals; up to maximum 50 mM
Procedure: To verify the cytotoxicity of D-pinitol to Raw264.7 cell, Raw264.7 cells were grown on 96-well plate until 0.5×10^3 cells/200 μl. Cells were cultured for 3 days while treating with D-pinitol at concentrations of 1, 3.5, 7, 12.5, 25 and 50 mM respectively. Cell number increased during 3 days of culture was counted to determine the cytotoxicity of added compounds.
The present inventors examined the cytotoxicity of D-pinitol at various concentrations. Influence of D-pinitol to cell proliferation was examined by treating Raw264.7 cells with various concentrations of D-pinitol. Osteoclast progenitor cell line, Raw264.7 cells were cultured and treated with D-pinitol in a range of 0-50 mM concentration. The number of survived cells was counted for 3 days at 24 hrs intervals.

Raw264.7 cells [4] = assay: Osteoclastogenesis of Raw264.7 cells, TRAP solution assay; type: cell-based; settings: RankL
Procedure: Raw264.7 cells were cultured in α-MEM (α-minimal essential medium) containing 10% FBS (fetal bovine serum). In the experiment of examining osteoclastogenesis, cells were adjusted to 2.0×10^3 cells/200 μl on 96-well plate and incubated with 200 ng/ml of sRANKL. TRAP (tartrate resistant acid phophatase) staining and TRAP solution assay were carried out at forth day after culturing cells for 3 days with treatment of D-pinitol at concentrations of 1, 3.5, 7, 12.5, 25 and 50 mM respectively. Cells were fixed for TRAP staining and TRAP solution assay. TARP positive multinuclear (more than 3 nuclei) cells were counted as an osteoclast-like cell. Cells were observed using Leica DM IRM microscope. TRAP solution assay of TRAP positive cells were carried out according to the following method. Medium was removed, 100 μl of 10% formalin was added and incubated for 10 min at room temperature. After 100 μl of methanol/acetone was added, incubated for 1 min at room temperature, and then dried. TRAP substrate solution comprising a tablet of pNPP (p-nitrophenylphosphate) dissolved in 20 ml of TRAP buffer (pH 5.2) was added into and incubated for 20-30 min at 37° C. 100 μl of TRAP substrate solution was transferred to a new 96-well plate in which 50 μl of 1N NaOH was contained. Finally, OD (optical density) value was measured at 405 nm. […]

[5] = test system: co-culture of osteoblast and bone marrow-derived osteoclast; assay: Osteoclastogenesis in co-culture of osteoblast and bone marrow cells, TRAP staining; type: cell-based, mouse
Procedure: To prepare a primary osteoblast of mice, frontal bone and parietal bone of fetal mice at 1 day of age were aseptically enucleated. After washing enucleated bone tissue with PBS solution, it was subsequently treated with mixed-enzyme solution (0.2% collagenase and 0.1% dispase) 6 times at 20 min intervals. Cells having the property of osteoblast were harvested and then washed with culture solution. Washed cells were cultured in α-MEM containing 10% serum for 3 days and used as a primary osteoblast. Co-culture was carried out in a manner that 1.0×10^4 cells/200 μl of osteoblast and 1.0×10^5 cells of bone marrow cells were cultured on 96-well plate with vitamin D3 (10^−6M) and prostagrandin E2 (PGE2, 10^−8M) for 5 days. After culturing, TRAP staining was performed. Osteoblast was extracted from mouse skull and then co-cultured with hematopoietic stem cells of bone marrow in order to induce the differentiation of osteoclast. The effect of D-pinitol on osteoclastogenesis was investigated by treating cells with D-pinitol with a range of 0-50 mM during the differentiation-inducing process.

[6] = test system: bone marrow-derived osteoclast; assay: Bone resorption-degradative potential of osteoclast on bone fragments (toluidine blue staining); type: cell-based, mouse
Procedure: To examine the effect of D-pinitol on degradative potential of osteoclast in the bone resorption process, fragment of tooth bone was added in 96-well plate and then bone marrow cells were cultured until 1.0×10^5 cells/200 μl. For the differentiation of osteoclast, 50 ng/ml of M-CSF and 200 ng/ml of sRANKL were added. D-pinitol was added to the media in a concentration-dependent manner and incubated for 4 days. Where the differentiation of osteoclast was observed after completing the culture, cells were removed in bone fragment and observed in microscope via 1% toluidine blue staining. To investigate the effect of D-pinitol on the bone resorption-degradative potential of osteoclast, cells were treated with D-pinitol in the range of 0-50 mM during the differentiation into osteoclast on bone fragments which were obtained from human teeth.

[7] = test system: bone marrow-derived osteoclast; assay: Differentiation of bone marrow-derived osteoclast, TRAP staining; type: cell-based, mouse
Procedure: For cytochemical staining of TRAP positive cell, medium was removed. After that, 100 μl of 10% formalin was added to cells and incubated for 10 min at room temperature. 100 μl of methanol/acetone was added and incubated for 1 min at room temperature. Cells were stained with 10 ml of TRAP buffer (Tris-HCl, pH 4.5, EDTA), naphthol AS phosphate (substrate, Sigma #N-4875) and 5 mg of Fast Red Violet dye (Sigma, F-1625). 1 mg of naphthol AS phosphate dissolved in […] of N, N-dimethyl formide (DMF, Sigma #319937) was used. The reaction was performed for 10-30 min and then red color was observed. Where red color is clearly observed, it was washed with flowing water and dried. […] To extract mouse bone marrow cells, thighbone and shinbone of male C57BL/6 mouse at 3-4 weeks of age were aseptically enucleated and their soft tissues were eliminated. Both end of long bone was cut in extracted bone tissues and then bone marrow cells were collected by injecting α-MEM/10% FBS into bone marrow cavity at one end using a 26G injection syringe. Collected bone marrow cells were subjected to 5 ng/ml of M-CSF and incubated for 16 hrs. Unattached cells on plate bottom were harvested. For the induction of the differentiation of bone marrow-derived osteoclast, bone marrow cells of 1.0×10^5 cells per well were cultured with α-MEM/10% FBS in the presence of 200 ng/ml of sRANKL and 50 ng/ml of M-CSF. D-pinitol was added to media at various concentrations during culture. Three experiments were carried out at each concentration and media were replaced at third day after grown in complete media containing sRANKL, M-CSF and D-pinitol. […] To investigate the effect of D-pinitol on the osteoclast differentiation from bone marrow-derived monocyte, hematopoietic stem cells were extracted from bone marrow and activated for 1 day by M-CSF (5 ng/ml), resulting in induction of the differentiation into mononuclear cells. […] To quantitate the effect of D-pinitol in osteoclatogenesis of bone marrow-derived monocyte, osteoclast cell number within sample was measured using TRAP staining. […]

[8] = test system: bone marrow-derived osteoclast; assay: Osteoclast differentiation in respective stages of osteoclastogenesis; type: cell-based, mouse; settings: from 2 days after culture, not less than 25 mM
Procedure: To examine the effect of D-pinitol on osteoclast at each stage of culturing, D-pinitol was added to the culture media of osteoclast with various concentrations. D-pinitol-treated osteoclast was separated at each cultured time and then amount of differentiated osteoclast was analyzed using TRAP solution assay. To analyze the effect of D-pinitol on respective stages of differentiation of bone marrow-derived osteoclast, the differentiation state of osteoclast, which has been cultured in the presence of various concentration of D-pinitol, was estimated in a time-dependent course. […] It could be also understood that D-pinitol affects in the cell-fusion stage of the osteoclastogenesis.

Raw264.7 cells [9] = assay: Osteoclastogenesis of Raw264.7 cells, TRAP staining; type: cell-based
Procedure: Raw264.7 cells were cultured in α-MEM (α-minimal essential medium) containing 10% FBS (fetal bovine serum). In the experiment of examining osteoclastogenesis, cells were adjusted to 2.0×10^3 cells/200 μl on 96-well plate and incubated with 200 ng/ml of sRANKL. TRAP (tartrate resistant acid phophatase) staining and TRAP solution assay were carried out at forth day after culturing cells for 3 days with treatment of D-pinitol at concentrations of 1, 3.5, 7, 12.5, 25 and 50 mM respectively. Cells were fixed for TRAP staining and TRAP solution assay. TARP positive multinuclear (more than 3 nuclei) cells were counted as an osteoclast-like cell. Cells were observed using Leica DM IRM microscope. For cytochemical staining of TRAP positive cell, medium was removed. After that, 100 μl of 10% formalin was added to cells and incubated for 10 min at room temperature. 100 μl of methanol/acetone was added and incubated for 1 min at room temperature. Cells were stained with 10 ml of TRAP buffer (Tris-HCl, pH 4.5, EDTA), naphthol AS phosphate (substrate, Sigma #N-4875) and 5 mg of Fast Red Violet dye (Sigma, F-1625). 1 mg of naphthol AS phosphate dissolved in […] of N, N-dimethyl formide (DMF, Sigma #319937) was used. The reaction was performed for 10-30 min and then red color was observed. Where red color is clearly observed, it was washed with flowing water and dried. […] Raw264.7 cell line was treated with 200 ng/ml of RankL for 4 days. […] To quantitate inhibitory activity of D-pinitol in osteoclastogenesis of Raw264.7 cells, multinucleate cell number was measured via TRAP staining according to various treatment concentration of D-pinitol. […] Therefore, it could be understood that D-pinitol was a substance to inhibit osteoclastogenesis of Raw264.7 cell. D-pinitol inhibited osteoclastogenesis almost 100% at a concentration of 50 mM.

COC1C(O)C(O)C(O)C(O)C1O [D-pinitol]
effect on CCK8 activity ([1]; 0-50 mM, M-CSF 50 ng/ml): no effect
influence on proliferation of hematopoietic stem cells ([1]; not more than 50 mM): no influence
inhibitory effect on differentiation of bone marrow-derived osteoclast [2]: also observed
Raw264.7 cell cytotoxicity (Raw264.7 cells [3]): not observed
inhibitory activity in TRAP solution assay versus counting multinucleate cell number (Raw264.7 cells [4]): relatively weaker
cell number of multinucleated osteoclast ([5]; 0-50 mM, increasing concentration): significantly decreased
osteoclastogenesis ([5]; 50 mM): clearly inhibited
bone resorption-degradative potential of osteoclast ([6]; 0-50 mM, increasing concentration, bone fragments from human teeth): remarkably decreased
bone resorption-degradative potential of osteoclast ([6]; not less than 25 mM): dramatically decreased
number of TRAP-stained osteoclast ([7]; 0-50 mM, RankL 200 ng/ml and M-CSF 50 ng/ml, 4 days): decreased in proportion to the concentration
inhibition at 50000 µM ([7]; Mus musculus, Osteoclast, 50 mM, bone marrow-derived monocyte, read-out: inhibition of osteoclastogenesis): ~100%
concentration from which a remarkable decrease of multinucleate cell number was observed ([7]; TRAP staining count): 25 mM
differentiation of bone marrow-derived osteoclast [8]: remarkably inhibited
inhibition at 50000 µM (Raw264.7 cells [9]; Mus musculus, RAW264.7, 50 mM, multinucleate cell count by TRAP staining): ~100%
osteoclastogenesis (TRAP staining photographs) (Raw264.7 cells [9]; RankL 200 ng/ml, 4 days, increasing concentration up to 50 mM): significantly impaired
multinucleate cell number (Raw264.7 cells [9]; RankL 200 ng/ml, increasing concentration of D-pinitol): significantly decreased
